Data taken from patent publication US9068949B2, “System and method for multiplex spectroscopic imaging” (Purdue Research Foundation, priority 2013, dated 2015).

System: intact mouse ear
Assay: DMSO penetration into intact mouse ear monitored by multiplex SRS imaging with MCR analysis
Type: in vivo
Conditions: DMSO applied to intact mouse ear
Method: In order to reduce ambiguity associated with MCR decomposition, a data augmentation matrix composed of repeating reference spectra, if needed, can be added to the spectral dataset D. The enhanced weight on pure reference spectra permits the MCR algorithm to selectively recover concentration profiles for corresponding Raman bands. An experiment was performed to test this. For tissue penetration data, pure DMSO spectrum and lipid spectrum were provided as initial estimations (reference spectra) for MCR analysis. A data augmentation matrix including reference spectra of DMSO and lipid was added to the spectral dataset in order to reduce ambiguity. For analysis of aqueous solutions of DMSO, a data augmentation matrix composed of reference spectra of DMSO was added to the spectral dataset in order to reduce MCR's ambiguity. A non-negativity constraint was used during the iterations.
FIGS. 10A, 10B, 11A, 11B, and 12 show experimental data of SRS imaging. Various aspects of parallel detection herein advantageously provide a speed of acquiring a spectrum at 30 μs time scale, or over 30,000 spectra per second. For imaging, this scheme avoids spectral profile distortion induced by sample movement, thus enabling observation of target molecules in a highly dynamic system. […] Every three minutes, one spectroscopic SRL image was acquired at the speed of 3 s per frame of 200×200 pixels. Importantly, although the C—H Raman spectra of DMSO and lipid are completely overlapped, spectroscopic SRS imaging, followed by employing MCR analysis as described above, permitted determining concentration maps of lipids and DMSO over time.
The scale bar in the 5-minute image in FIG. 10A is 20 μm. The arrow near the center of the 32-minute image in FIG. 10A indicates the location at which concentrations were measured for FIG. 12, discussed below.
The temporal dynamics of DMSO (circles) and lipid (squares) concentrations are shown. The curve represents fitting by a diffusion model. […]

## C[S+](C)[O-] [DMSO, dimethyl sulfoxide]
Imaged up to 32 minutes
  structure of the fat cells after DMSO application: remained intact
lipid-abundant layer ~50 μm beneath the skin surface, after 30 min
  distribution of DMSO in the adipose tissue: inter-cell distribution of DMSO was observed
lipid-abundant layer ~50 μm beneath the skin surface, in the first 5 min
  DMSO penetration into the adipose tissue: Very small amounts
